Measured values from paper PMC11206246, “Cyclosporin A-Based PROTACs Can Deplete Abundant Cellular Cyclophilin A without Suppressing T Cell Activation” (Molecules, 2024).
Where a SMILES comes first, the peptide text is derived from it. The star is where a group is joined. Cbz = O=C(OCc1ccccc1)*

Columns and labels:
CypA [1] = target: T1, CypA (Homo sapiens, UniProt P62937); conditions: cited from earlier work
CypA [2] = target: T1, CypA; experiment: Degradation of CypA in HDFn fibroblasts (western blot); format: cell-based; set-up: endogenous in cells; host or cells: primary PBMCs from healthy donors; conditions: 1 μM epoxomicin, 3 μM MG-132, 1 μM CsA, 10 μM VHL ligand
Description: (§1) HeLa cells and primary human dermal fibroblasts isolated from neonatal foreskin (HDFn) were adherent cells and were cultured in commercially available, ready-to-use DMEM ([…], Gibco, Waltham, MA, USA) supplemented with 10% (v/v) FBS (Fetal Bovine Serum, Sigma-Aldrich) and antibiotics (Streptomycin/Penicillin, 1:1000 dilution) in polystyrene culture flasks. Growth conditions for all cell lines were maintained in a humidified chamber at 37 °C and 5% CO2. For subculturing or prior counting, the cells were treated with trypsin-EDTA (Life Technologies GmbH, Carlsbad, CA, USA) to detach them from the surface.
(§2) A total of 5 × 10^5 HeLa cells or HDFn was plated in 6-well plates the day before treatment. […] An amount of 200 μL PROTAC dilutions (0.1 μM and 1.0 μM) in DMSO (final concentration 0.1% (v/v)) were added to the culture medium and incubated at 37.0 °C and 5.0% CO2 for the desired time. As a blank, the cells were incubated with 200 μL DMSO under the same conditions. After the appropriate incubation time, the medium was aspirated, and the cells were washed twice with 1× PBS.
(§3) Cells were lysed in ice-cold 1× Laemmli buffer (100 mM DTT) after two washes with 1× PBS. After denaturation (95 °C for 5 min) and shearing of the DNA by sonication, the samples were loaded on Tricine-SDS-PAGE, electrophoresed, and blotted onto a PVDF membrane. After staining with S-Ponceau staining solution and blocking, the membranes were incubated overnight at 4 °C in primary rabbit anti-CypA antibody (Cell Signaling Technology #2175S, Danvers, MA, USA) and for 1 h at room temperature with secondary antibody (IRDye® 800 CW Goat anti-Rabbit IgG Secondary Antibody, LI-COR). All membranes were then reprobed with rabbit anti-beta actin (Cell Signaling Technology #4967) to ensure equal protein loading. The intensities of the bands on western blot films were quantified using the LI-COR Odyssey Imaging System and the software Image Studio Lite (version 3.1). The CypA values were normalized to β-actin, and DMSO was arbitrarily assigned a value of 100% for comparison purposes.

CypA [3] = target: T1, CypA; experiment: Degradation of endogenous CypA in HeLa cells (western blot); format: cell-based; set-up: The degradation of endogenous CypA in HeLa cells was investigated; endogenous in cells; host or cells: HeLa; conditions: 1 μM epoxomicin, 3 μM MG-132, 1 μM CsA, 10 μM VHL ligand
Description: as §1, §2, §3

T1 sequence (P62937 whole entry): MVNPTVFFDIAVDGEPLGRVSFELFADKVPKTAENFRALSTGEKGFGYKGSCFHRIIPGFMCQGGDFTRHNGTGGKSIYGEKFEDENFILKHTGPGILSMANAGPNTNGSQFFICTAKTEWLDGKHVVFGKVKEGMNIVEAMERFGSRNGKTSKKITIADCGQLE

**Q.** Which CypA inhibitor potency (CypA [1]) does the source give for `C/C=C/C[C@@H](C)[C@@H](O)[C@H]1C(=O)N[C@@H](CC)C(=O)N(C)[C@H](C)C(=O)N(CC)[C@@H](C(C)C)C(=O)N[C@@H](C(C)C)C(=O)N(C)[C@@H](CC(C)C)C(=O)N[C@@H](C)C(=O)N[C@H](C)C(=O)N(C)[C@@H](CC(C)C)C(=O)N(C)[C@@H](CC(C)C)C(=O)N(C)[C@@H](C(C)C)C(=O)N1C` [Alisporivir] here?
**A.** Its CypA inhibitor potency is “low nM”.

**Q.** Which results are given for `CC[C@H](C)[C@H](NC(=O)[C@H]([C@@H](C)CC)N(C)C(C)=O)C(=O)N[C@H](C(=O)N[C@@H](CC(C)C)C(=O)[C@@]1(C)CO1)[C@@H](C)O` [Ep, epoxomicin]?
**A.** effect of 1 h pre-treatment with the substance on CypA degradation by P3 or P5 (CypA [2]): suppressed; effect of 1 h pre-treatment with the substance on CypA degradation by P3 or P5 (CypA [3]): suppressed

**Q.** Which results are given for `CC(C)C[C@@H](C=O)NC(=O)[C@H](CC(C)C)NC(=O)[C@H](CC(C)C)NC(=O)OCc1ccccc1` [MG-132] (Cbz-Leu-Leu-Leu-aldehyde)?
**A.** effect of 1 h pre-treatment with the substance on CypA degradation by P3 or P5 (CypA [2]): suppressed; effect of 1 h pre-treatment with the substance on CypA degradation by P3 or P5 (CypA [3]): suppressed

**Q.** What does the source list for `Cc1ncsc1-c1ccc(CNC(=O)[C@@H]2C[C@@H](O)CN2C(=O)[C@@H](N)C(C)(C)C)cc1` [VHL ligand 1]?
**A.** effect of 1 h pre-treatment with the substance on CypA degradation by P3 or P5 (CypA [2]): recovery of CypA band; effect of 1 h pre-treatment with the substance on CypA degradation by P3 or P5 (CypA [3]): recovery of CypA band
